Values quoted from earlier work in patent US20160082019A1, “Drug Combinations to Treat Cancer” (EXELIXIS, INC., priority 2013, published 2016).

Conditions: cabozantinib alone; in some cases normalized; independent of PSA declines

SMILES: COc1cc2nccc(Oc3ccc(NC(=O)C4(C(=O)Nc5ccc(F)cc5)CC4)cc3)c2cc1OC [Cabozantinib, N-(4-{[6,7-bis(methyloxy)quinolin-4-yl]oxy}phenyl)-N′-(4-fluorophenyl)cyclopropane-1,1-dicarboxamide]
- uptake on bone scans: decrease uptake on bone scans
